Source: paper PMC11378298 (ACS Chemical Neuroscience, 2024)

Tests used:
[1] = Cytotoxicity in BV-2 cells (PrestoBlue); conditions: mouse, BV-2 microglial cells
Procedure: The compounds were tested at 5 concentrations (0.1, 1, 10, 50, and 100 μM).
Mouse microglial cells (BV-2) were a generous gift from Professor Bozena Kaminska-Kaczmarek of the Laboratory of Molecular Neurobiology, Neurobiology Center, Nencki Institute of Experimental Biology, Polish Academy of Sciences, Warsaw, Poland. Cells were cultured in Dulbecco’s modified Eagle’s Medium-high glucose (DMEM, Glutamax Thermo Fisher) supplemented with 10% heat-inactivated fetal bovine serum (Thermo Fisher), 100 IU/mL penicillin (Merck) and 100 μg/mL streptomycin (Merck). Cells were cultured in flasks (area 175 cm^2, Nunc), and incubated at 37 °C, 5% CO2. To evaluate the level of NO, IL-6, and TNF-α and the effectiveness of the compounds tested, BV-2 microglia cells were cultured in a 96-well culture plate (5 × 10^4 cells per well, Falcon). For the measurement of cell viability and cell membrane damage, cells were placed in a 96-well culture plate (2 × 10^4 cells per well, Falcon). Before the tests, cells were grown for 24 h in the incubator (37 °C, 5% CO2).
Cell viability was evaluated using the PrestoBlue reagent (ThermoFisher), according to the manufacturer’s procedures.[87] Following 24 h of incubation with the tested molecule, PrestoBlue reagent was added to a microplate well in an amount equal to one-tenth of the remaining medium volume. The resulting mixture was incubated for 15 min at 37 °C, and the fluorescence intensity (EX 530 nm; EM 580 nm) was measured in the plate reader POLARstar Omega, (BMG Labtech).

CYP3A4 = CYP3A4 (Homo sapiens, UniProt P08684); conditions: for CYP3A4 activity at 0.1 µM / CYP3A4 activity at 1 µM / CYP3A4 activity at 10 µM / CYP3A4 activity at 25 µM: ± SD
Chain of CYP3A4 (P08684 whole entry, canonical isoform): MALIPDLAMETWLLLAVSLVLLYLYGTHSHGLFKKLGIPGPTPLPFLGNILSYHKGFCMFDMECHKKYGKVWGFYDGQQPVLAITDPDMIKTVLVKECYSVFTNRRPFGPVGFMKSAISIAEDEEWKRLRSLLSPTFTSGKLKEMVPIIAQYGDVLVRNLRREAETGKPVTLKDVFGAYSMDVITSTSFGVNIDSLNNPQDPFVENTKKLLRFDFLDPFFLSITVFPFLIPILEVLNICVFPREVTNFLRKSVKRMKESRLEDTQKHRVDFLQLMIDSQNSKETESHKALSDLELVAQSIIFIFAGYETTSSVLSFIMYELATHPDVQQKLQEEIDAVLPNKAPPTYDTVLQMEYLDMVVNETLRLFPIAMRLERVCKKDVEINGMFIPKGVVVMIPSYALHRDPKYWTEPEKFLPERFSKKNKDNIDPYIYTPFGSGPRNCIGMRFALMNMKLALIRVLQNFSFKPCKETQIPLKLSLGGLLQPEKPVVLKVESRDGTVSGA
Source text: (§1) Interactions with cytochrome enzymes are significant contributors to drug–drug interactions (DDIs), a crucial concern for patients who are on multiple medications. We determined the compounds’ influence on the most important CYP isoforms 3A4, 2D6, and 2C9, using the CYP450 inhibition luminescence assay from Promega (for details see Figures S23–S25 and Table S11 in the SI).
(§2) All protocols used for the evaluation of drug-like properties (ADME-To parameters) were described in our previous works.[58],[89] Precoated PAMPA Plate System Gentest was obtained from Corning, (Tewksbury, MA, USA). The metabolic stability assay was performed on human liver microsomes (HLMs, Sigma-Aldrich, St. Louis, MO, USA). The assays with microsomes were supported by MetaSite 6.0.1 software (Molecular Discovery Ltd. Hertfordshire, UK). To predict potential drug–drug interactions (DDIs) the influence on CYP3A4, CYP2D6, and CYP2C9 were carried with use of respective P450-Glo kit (Promega, Madison, WI, USA). The luminescence signal and absorbance were measured by using a microplate reader EnSpire PerkinElmer (Waltham, MA, USA). The LC/MS/MS analyses used in PAMPA and the assays with use of HLMs were obtained on Waters ACQUITY TQD system (Waters, Milford, CT, USA). […] Statistical significances and IC50 values were calculated by Graph Pad Prism 9 software. […]

CYP2C9 = CYP2C9 (Homo sapiens, UniProt P11712); conditions: for CYP2C9 activity at 0.1 µM / CYP2C9 activity at 1 µM / CYP2C9 activity at 10 µM / CYP2C9 activity at 25 µM: ± SD
Chain of CYP2C9 (P11712 whole entry): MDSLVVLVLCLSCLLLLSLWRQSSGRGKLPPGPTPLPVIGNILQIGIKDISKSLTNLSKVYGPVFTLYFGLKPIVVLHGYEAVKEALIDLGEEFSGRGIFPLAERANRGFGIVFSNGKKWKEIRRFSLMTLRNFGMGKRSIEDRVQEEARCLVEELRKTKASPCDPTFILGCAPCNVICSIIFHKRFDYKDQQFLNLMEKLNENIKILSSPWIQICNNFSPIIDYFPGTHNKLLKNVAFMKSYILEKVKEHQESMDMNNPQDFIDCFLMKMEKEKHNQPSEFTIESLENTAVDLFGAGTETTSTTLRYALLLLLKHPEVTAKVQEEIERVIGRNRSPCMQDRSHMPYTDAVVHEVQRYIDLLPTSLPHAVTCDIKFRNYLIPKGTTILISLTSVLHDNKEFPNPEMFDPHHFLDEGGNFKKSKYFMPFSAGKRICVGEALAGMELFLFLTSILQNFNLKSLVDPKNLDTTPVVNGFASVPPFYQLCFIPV
Source text: as §1, §2

CYP2D6 = CYP2D6 (Homo sapiens, UniProt P10635); conditions: for CYP2D6 activity at 0.1 µM / CYP2D6 activity at 1 µM / CYP2D6 activity at 10 µM / CYP2D6 activity at 25 µM: ± SD
Chain of CYP2D6 (P10635 whole entry): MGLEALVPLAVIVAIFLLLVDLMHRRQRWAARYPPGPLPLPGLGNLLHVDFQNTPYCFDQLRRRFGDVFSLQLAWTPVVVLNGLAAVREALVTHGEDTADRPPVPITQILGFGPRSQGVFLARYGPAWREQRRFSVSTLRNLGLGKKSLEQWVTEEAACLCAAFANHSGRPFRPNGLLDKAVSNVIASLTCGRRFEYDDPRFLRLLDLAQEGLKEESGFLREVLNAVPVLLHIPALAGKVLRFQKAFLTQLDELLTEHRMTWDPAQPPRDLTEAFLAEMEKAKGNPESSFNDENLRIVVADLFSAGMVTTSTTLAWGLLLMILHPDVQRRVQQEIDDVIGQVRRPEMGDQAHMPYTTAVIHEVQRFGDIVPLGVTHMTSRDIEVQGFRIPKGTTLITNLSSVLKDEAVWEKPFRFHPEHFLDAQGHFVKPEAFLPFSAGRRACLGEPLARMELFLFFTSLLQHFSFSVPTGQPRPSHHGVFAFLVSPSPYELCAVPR
Source text: as §1, §2

BV-2 cell line [2] = assay: NO release in LPS-treated BV-2 cells (DAN fluorometric assay); assay type: cell-based, mouse; conditions: compound 10 μM; LPS 100 ng/mL
Procedure: (§3) Cell viability was determined by Presto Blue assay after 24 h. (B) Effect of compounds 11, 34, and 36 (0.1, 1, 10 μM) on NO-release (%) in LPS-treated (100 ng/mL) BV-2 cell line. NO-release was measured using a fluorometric assay with 2,3-diaminonaphthalene (DAN). (C, D) Effects of compounds 11 and 36 (0.1, 1, 10 μM) on IL-6 and TNF-α release in LPS-treated (100 ng/mL) BV-2 cell line. The IL-6 and TNF-α levels were measured using LANCE Ultra TR-FRET Detection Kit (PerkinElmer). Statistical analysis was performed using GraphPad Prism 9.0.0. All values are expressed as mean with SD. Differences among groups were evaluated by one-way ANOVA followed by posthoc analysis (Dunnett’s multiple comparison tests) vs. control group (LPS on BV-2 cells and okadaic acid on HT-22 cells) and were considered statistically significant if p < 0.05 (*p < 0.05, **p < 0.01, ***p < 0.001, and ****p < 0.0001).
An important role in the pathogenesis of AD has been attributed to neuroinflammation resulting from the activation of astrocytes and microglial cells.[55] These processes lead to increased production of proinflammatory cytokines such as TNF-α or IL-6 that activate processes, e.g., tau hyperphosphorylation, causing injury and cell death.[56] A standard model of neuroinflammation is based on lipopolysaccharide-stimulated BV-2 microglial cells. In this study, we used this model to evaluate the anti-inflammatory properties of compounds 11, 34, and 36.[57] Our evaluation focused on monitoring the levels of key inflammatory markers, including nitric oxide (NO, Figure 6B) and cytokines, TNF-α and IL-6 (Figure 6C,D).
The cells were pretreated with tested compounds for 1 h. […]
The NO level in the culture supernatants was measured using 2,3-diaminonaphthalene (DAN) reagent according to the method of Nussler et al.[88] After 15 min of incubation at room temperature, the fluorescence intensity (EX 360; EM 440 nm) was measured using a microplate reader POLARstar Omega, (BMG Labtech). The values of nitric oxide were calculated as a percentage of control (maximal response of LPS).

BV-2 cell line [3] = assay: TNF-α release in LPS-treated BV-2 cells (LANCE Ultra TR-FRET); assay type: cell-based, mouse; conditions: compound 10 μM; LPS 100 ng/mL
Procedure: as §3, with “0.0001). […]” for “0.0001).”
The IL-6 and TNF-α levels in the culture supernatants were measured using LANCE Ultra TR-FRET Detection Kit (PerkinElmer), according to manufacturer protocol. […] After 1 h of incubation of IL-6 and 3h for incubation of TNF-α in the dark, at 22 °C, the plates were read with an EnVision plate reader (PerkinElmer) with the excitation wavelength at 320 nm, the donor emission at 615 nm, and the acceptor emission at 660 nm. […]

| Compound | IC50 at 24 h [1] | effect on CYP3A4 (CYP3A4) | CYP3A4 activity at 0.1 µM (CYP3A4) | CYP3A4 activity at 1 µM (CYP3A4) | CYP3A4 activity at 10 µM (CYP3A4) | CYP3A4 activity at 25 µM (CYP3A4) | effect on CYP2C9 (CYP2C9) | CYP2C9 activity at 0.1 µM (CYP2C9) | CYP2C9 activity at 1 µM (CYP2C9) | CYP2C9 activity at 10 µM (CYP2C9) | CYP2C9 activity at 25 µM (CYP2C9) | CYP2D6 activity at 0.1 µM (CYP2D6) | CYP2D6 activity at 1 µM (CYP2D6) | CYP2D6 activity at 10 µM (CYP2D6) | CYP2D6 activity at 25 µM (CYP2D6) | effect on CYP2D6 (CYP2D6; any tested concentration) | NO release (BV-2 cell line [2]) | TNF-α release (BV-2 cell line [3]) | interactions with CYP isoform 2C9 (CYP2C9; up to 25 μM) |
| --- | --- | --- | --- | --- | --- | --- | --- | --- | --- | --- | --- | --- | --- | --- | --- | --- | --- | --- | --- |
| NC(=O)N1CC=C(c2ccnc(NC(=O)C3CC3)c2)C1 [Compound 11, 3-(2-(Cyclopropanecarboxamido)pyridin-4-yl)-2,5-dihydro-1H-pyrrole-1-carboxamide] | 23.4 ± 1.7 µM | inhibitory effect | 103.8 ± 5.9 % of control | 100.1 ± 17.6 % of control | 94.2 ± 17.5 % of control | 76.4 ± 2.9 % of control | inhibitory effect | 103.9 ± 7.0 % of control | 105.2 ± 7.4 % of control | 89.8 ± 4.7 % of control | 69.7 ±3.04 % of control | 91.2 ± 1.7 % of control | 93.0 ± 6.0 % of control | 95.2 ± 6.2 % of control | 97.4 ± 14.8 % of control | no effect | significantly reducing the release | significantly reducing the release |  |
| O=C(Nc1cc(-c2ccc(-c3ncon3)s2)ccn1)C1CC1 [Compound 36, N-(4-(5-(1,2,4-Oxadiazol-3-yl)thiophen-2-yl)pyridin-2-yl)cyclopropanecarboxamide] | 89.3 ± 4.9 µM | inhibitory effect | 104.8 ± 3.4 % of control | 103.6 ± 11.0 % of control | 84.6 ± 15.1 % of control | 65.3 ± 11.9 % of control | inhibitory effect | 109.5 ± 17.0 % of control | 114.1 ± 14.9 % of control | 95.2 ± 7.5 % of control | 59.8 ± 11.5 % of control | 98.4 ± 10.8 % of control | 98.1 ± 12.7 % of control | 100.4 ± 20.8 % of control | 102.8 ± 15.0 % of control |  | significantly reducing the release | significantly reducing the release | lacked significant interactions |
